Values quoted from earlier work in patent US20140363510A1, “PHARMACEUTICAL COMPOSITION INCLUDING PIMOBENDAN” (BOEHRINGER INGELHEIM VETMEDICA GMBH, priority 2004, published 2014).

solubility in water (water): hardly dissolves in water
SMILES: COc1ccc(-c2nc3ccc(C4=NNC(=O)CC4C)cc3[nH]2)cc1 (centres unmarked) [Pimobendan, 4,5-dihydro-6-[2-(4-methoxyphenyl)-1H-benzimidazol-5-yl]-5-methyl-3(2H)-pyridazone]
solubility in aqueous media (aqueous media, pH-dependent): low solubility in aqueous media and a very highly pH-dependent solubility
